This experiment deals with leucémie murine L 1210. Kind of experiment: Cytotoxic activity on murine leukaemia L 1210 cells in suspension culture, cell count after 48 h. The following applies: Mus musculus, L1210; concentration reducing growth by 50 % versus controls; 48 heures d'incubation; Coulter Counter; 37°C, 5 % CO₂. Format: cell-based. As for the experimental part: L'activité cytotoxique a été evaluée sur le modèle de la leucémie murine L 1210 cultivée en suspension en milieu iquide à 37°C sous une atmosphère de 5 % CO₂.
Les cellules en phase exponentielle de croissance sont incubées en présence de concentrations croissantes des produits. Après 48 heures d'incubation, les cellules sont comptées (Coulter Counter) et l'effet cytotoxique est évalué par la détermination par régression linéaire de la concentration du produit ayant réduit de 50 % la croissance par rapport aux témoins (IC₅₀).
What is called IC50 is the concentration that gives 50% inhibition. A low value points to higher potency. Compound `COCc1c(O)ccc2cc3ccc4ncccc4c3nc12` [Exemple 2, Hydroxy-10 méthoxyméthyl-11 benzo [b] phénanthroline-1,7] registered a concentration for half-maximal inhibition (IC50) of 6.5 µM.

On to `CN1COCc2c1ccc1cc3ccc4ncccc4c3nc21` [Exemple 4, Dihydro-3,4 méthyl-4 1H-benzoxazino [3,1] [5,6-b] phénanthroline-1,7], for which the IC50 worked out at 1.3 µM. Against the preceding compound, the IC50 is about 5-fold lower.

The compound `CNc1ccc2cc3ccc4ncccc4c3nc2c1COC` [Exemple 6, Méthoxyméthyl-11 méthylamino-10 benzo [b] phénanthroline-1,7] returned an IC50 of 1.1 µM. This IC50 and that of the compound before are within 1.5-fold of each other.

Take `CNc1ccc2cc3ccc4ncccc4c3nc2c1CO` [Exemple 7, Hydroxyméthyl-11 méthylamino-10 benzo [b] phénanthroline-1,7]: the 50% inhibitory concentration (IC50) was 0.17 µM.

These data come from EP0502020B1, “NOVEL BENZO [b] PHENANTHROLINE-1,7 DERIVATIVES, AND THEIR PREPARATION AND THERAPEUTICAL APPLICATIONS” (PIERRE FABRE MEDICAMENT, priority 1989, dated 1991).
